{"source": "paper PMC10610379", "about": "“Epidrugs as Promising Tools to Eliminate Plasmodium falciparum Artemisinin-Resistant and Quiescent Parasites” (Pharmaceutics, 2023)", "key": {"[1]": {"system": "Plasmodium falciparum F32-TEM (artemisinin-sensitive twin line)", "assay": "Standard chemosensitivity assay (SYBR Green I), F32-TEM", "assay_type": "cell-based", "settings": "Plasmodium falciparum; F32-TEM, 48 h incubation, SYBR Green I; mean ± SEM of 3 experiments (* mean of 2); read-out: Antiplasmodial Activity: IC50, F32-TEM", "method_in_brief": "(§1)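 Both parasite lines grown at 2% hematocrit in human red cells with 5% human serum, 37 °C, 5% CO2, then exposed to drug for 48 h in triplicate.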"}, "[2]": {"system": "Plasmodium falciparum F32-ART (artemisinin-resistant strain)", "assay": "Standard chemosensitivity assay (SYBR Green I), F32-ART", "assay_type": "cell-based", "method_in_brief": "as §1"}, "661W": {"system": "661W", "parameters": "method as in PMID 29048427", "settings": "data from literature ref 44, read-out: Cytotoxicity: CC50 (661W); cited from earlier work"}}}
{"smiles": "CN1CCc2c(c3ccccc3n2Cc2ccc(C(=O)NO)cc2)C1", "note": "[Tubastatin A]", "values": [{"measurement": "IC50", "setting": "[1]", "value": 8, "unit": "µM"}, {"measurement": "IC50", "setting": "[2]; Plasmodium falciparum, F32-ART, 48 h incubation, SYBR Green I, mean ± SEM of 3 experiments (* mean of 2), read-out: Antiplasmodial Activity: IC50, F32-ART", "value": 7, "unit": "µM"}, {"measurement": "Selectivity Index CC50/IC50", "setting": "[2]; ratio cytotoxicity (mammalian cell type of the CC50)/antiplasmodial activity on F32-ART", "value": ">1.4"}, {"measurement": "CC50", "setting": "661W", "value": "> 10", "unit": "µM"}]}
